Assay results: patent US11028090B2 (Dong Wha Pharm. Co., Ltd., priority 2017, dated 2021)
Read-outs that look alike come from different tables or passages of the source.

Columns and labels:
[1] = test system: acute myelogenous leukemia cells (MV-4-11 cells); assay: Cytotoxicity to acute myelogenous leukemia cells (MV-4-11 cells), CCK-8; details: Homo sapiens, MV4-11, 72 h
[2] = target: BRD4 (BD1+BD2) bromodomain (Homo sapiens (Human), UniProt O60885); assay: BRD4 binding inhibition (AlphaScreen, GST-BRD4 vs tetraacetylated histone H4 peptide)
How it was run: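 AlphaScreen read after 30 min dark incubation at room temperature with glutathione acceptor/streptavidin donor beads (10 μg/ml each). The beads were added to compound plus 100 nM biotin-H4 (K5,8,12,16-acetyl) peptide and 100 nM GST-BRD4 BD1+BD2 in pH 7.4 HEPES/Tween/BSA/DTT buffer.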

[3] = read-out: MV-4-11 Cytotoxicity IC50
[4] = read-out: IC50, cytotoxicity against acute myelogenous leukemia cells
[5] = GST-BRD4 (BD1+BD2) vs biotinylated acetyl-histone H4 peptide, AlphaScreen, read-out: BRD4 IC50
[6] = GST-BRD4 (BD1+BD2) / biotinylated acetyl-histone H4 (Lys5,8,12,16) peptide, read-out: IC50, BRD4 binding inhibition

IC50 [2, 5] | IC50 [2, 6] | Molecule | IC50 [1, 3] | IC50 [1, 4]
– | – | CNc1ccc2c(c1)nc(NCCCCNC(=O)CC(C)C)c1nnc(C)n12 [Example 252, 3-methyl-N-[4-(1-methyl-7-methylamino-[1,2,4]triazolo[4,3-a]quinoxaline-4-ylamino)-butyl]-butyramide] | 254 nM | –
– | – | Cc1nnc2c(NCCCCNC(=O)CC(C)C)nc3cc(NC(=O)NC(C)C)ccc3n12 [Example 255, N-{4-[7-(3-isopropyl-ureido)-1-methyl-[1,2,4]triazolo[4,3-a]quinoxaline-4-ylamino]-butyl}-3-methyl-butyramide] | 93 nM | ≤ 200 nM
– | – | Cc1nnc2c(NCCCCNC(=O)CC(C)C)nc3cc(NC(=S)NC(C)C)ccc3n12 [Example 256, N-{4-[7-(3-isopropyl-thioureido)-1-methyl-[1,2,4]triazolo[4,3-a]quinoxaline-4-ylamino]-butyl}-3-methyl-butyramide] | 84 nM | ≤ 200 nM
69 nM | – | Cc1nnc2c(NCCCCNC(=O)OC(C)(C)C)nc3ccc(C(=O)Nc4ccccc4)cc3n12 [Example 538, [4-(1-methyl-8-phenylcarbamoyl-[1,2,4]triazolo[4,3-a]quinoxaline-4-ylamino)-butyl]-carbamic acid-tert-butylester] | – | –
37 nM | ≤ 50 nM | Cc1nnc2c(NCCCCNC(=O)OC(C)(C)C)nc3ccc([N+](=O)[O-])cc3n12 [Example 541, [4-(1-methyl-8-nitro-[1,2,4]triazolo[4,3-a]quinoxaline-4-ylamino)-butyl]-carbamic acid-tert-butylester] | – | –
61 nM | – | Cc1nnc2c(NCCCCNC(=O)OC(C)(C)C)nc3ccc(N)cc3n12 [Example 542, [4-(8-amino-1-methyl-[1,2,4]triazolo[4,3-a]quinoxaline-4-ylamino)-butyl]-carbamic acid-tert-butylester] | – | –
65 nM | – | Cc1nnc2c(NCCCCNC(=O)C(C)(C)C)nc3ccc(NC(=O)C(C)C)cc3n12 [Example 545] | – | –
– | ≤ 50 nM | CC(=O)Nc1ccc2nc(NCCCCNC(=O)OC(C)(C)C)c3nnc(C)n3c2c1 [Example 546, [4-(8-acetamino-1-methyl-[1,2,4]triazolo[4,3-a]quinoxaline-4-ylamino)-butyl]-carbamic acid-tert-butylester] | – | –
– | ≤ 50 nM | CC(=O)Nc1ccc2nc(NCCCCNC(=O)C(C)(C)C)c3nnc(C)n3c2c1 [Example 547, N-[4-(8-acetamino-1-methyl-[1,2,4]triazolo[4,3-a]quinoxaline-4-ylamino)-butyl]-2,2-dimethyl-propionamide] | – | –
45 nM | ≤ 50 nM | CC(=O)Nc1ccc2nc(NCCCCNC(=O)c3ccccc3)c3nnc(C)n3c2c1 [Example 548, N-[4-(8-acetamino-1-methyl-[1,2,4]triazolo[4,3-a]quinoxaline-4-ylamino)-butyl]-benzamide] | – | –
30 nM | ≤ 50 nM | Cc1noc(C)c1-c1ccc2nc(NCCCCNC(=O)OC(C)(C)C)c3nnc(C)n3c2c1 [Example 578, {4-[8-(3,5-dimethyl-isoxazol-4-yl)-1-methyl-[1,2,4]triazolo[4,3-a]quinoxaline-4-ylamino]-butyl}-carbamic acid-tert-butylester] | – | –
5 nM | ≤ 10 nM | Cc1noc(C)c1-c1ccc2nc(NCCCCN)c3nnc(C)n3c2c1 [Example 579, N^1-[8-(3,5-dimethyl-isoxazol-4-yl)-1-methyl-[1,2,4]triazolo[4,3-a]quinoxaline-4-yl]-butane-1,4-diamine ditrifluoroacetic acid] | – | –
24 nM | ≤ 50 nM | Cc1noc(C)c1-c1ccc2nc(NCCCCNC(=O)[C@H](O)C(C)C)c3nnc(C)n3c2c1 [Example 581, N-{4-[8-(3,5-dimethyl-isoxazol-4-yl)-1-methyl-[1,2,4]triazolo[4,3-a]quinoxaline-4-ylamino]-butyl}-2-(R)-hydroxy-3-methyl-butyramide] | – | –
10 nM | ≤ 10 nM | Cc1noc(C)c1-c1ccc2nc(NCCCCNC(=O)[C@@H](O)C(C)C)c3nnc(C)n3c2c1 [Example 582, N-{4-[8-(3,5-dimethyl-isoxazol-4-yl)-1-methyl-[1,2,4]triazolo[4,3-a]quinoxaline-4-ylamino]-butyl}-2-(S)-hydroxy-3-methyl-butyramide] | – | –
5 nM | ≤ 10 nM | Cc1noc(C)c1-c1ccc2c(c1)nc(NCCCCNC(=O)OC(C)(C)C)c1nnc(C)n12 [Example 583, {4-[7-(3,5-dimethyl-isoxazol-4-yl)-1-methyl-[1,2,4]triazolo[4,3-a]quinoxaline-4-ylamino]-butyl}-carbamic acid-tert-butylester] | – | –
24 nM | ≤ 50 nM | Cc1noc(C)c1-c1ccc2c(c1)nc(NCCCCNC(=O)[C@H](O)C(C)C)c1nnc(C)n12 [Example 586, N-{4-[7-(3,5-dimethyl-isoxazol-4-yl)-1-methyl-[1,2,4]triazolo[4,3-a]quinoxaline-4-ylamino]-butyl}-2-(R)-hydroxy-3-methyl-butyramide] | – | –
7 nM | ≤ 10 nM | Cc1noc(C)c1-c1ccc2c(c1)nc(NCCCCNC(=O)[C@@H](O)C(C)C)c1nnc(C)n12 [Example 587, N-{4-[7-(3,5-dimethyl-isoxazol-4-yl)-1-methyl-[1,2,4]triazolo[4,3-a]quinoxaline-4-ylamino]-butyl}-2-(S)-hydroxy-3-methyl-butyramide] | – | –

IC50 [2, 5] | IC50 [2, 6] | Molecule | IC50 [1, 3] | IC50 [1, 4]
46 nM | ≤ 50 nM | COc1ccc2c(c1)nc(NCCCCNC(=O)OC(C)C)c1nnc(C(F)(F)F)n12 [Example 589, [4-(7-methoxy-1-trifluoromethyl-[1,2,4]triazolo[4,3-a]quinoxaline-4-ylamino)-butyl]-carbamic acid isopropylester] | – | –
92 nM | – | COc1cc2nc(NCCCCNC(=O)CC(C)C)c3nnc(C(F)(F)F)n3c2cc1OC [Example 593, N-[4-(7,8-dimethoxy-1-trifluoromethyl-[1,2,4]triazolo[4,3-a]quinoxaline-4-ylamino)-butyl]-3-methyl-butyramide] | – | –
34 nM | ≤ 50 nM | COc1cc2nc(NCCCCNC(=O)CC(C)C)c3nnc(C(C)C)n3c2cc1OC [Example 603, N-[4-(1-isopropyl-7,8-dimethoxy-[1,2,4]triazolo[4,3-a]quinoxaline-4-ylamino)-butyl]-3-methyl-butyramide] | – | –
48 nM | ≤ 50 nM | COc1ccc2c(c1)nc(NCCCCNC(=O)OC(C)C)c1nnc(C(C)C)n12 [Example 628, [4-(1-isopropyl-7-methoxy-[1,2,4]triazolo[4,3-a]quinoxaline-4-ylamino)-butyl]-carbamic acid isopropylester] | – | –
16 nM | ≤ 50 nM | COc1ccc2c(c1)nc(NCCCCNC(=O)OCC(C)C)c1nnc(C(C)C)n12 [Example 629, [4-(1-isopropyl-7-methoxy-[1,2,4]triazolo[4,3-a]quinoxaline-4-ylamino)-butyl]-carbamic acid isobutylester] | – | –
47 nM | ≤ 50 nM | Cc1nnc2c(NCCCCOC(=O)C(C)(C)C)nc3ccccc3n12 [Example 631, 2,2-dimethyl-propionic acid-4-(1-methyl-[1,2,4]triazolo[4,3-a]quinoxaline-4-ylamino)-butylester] | – | –
44 nM | ≤ 50 nM | Cc1nnc2c(NCCCCOC(=O)C(C)C)nc3ccccc3n12 [Example 632] | – | –
91 nM | – | Cc1nnc2c(NCCCCOC(=O)c3ccccc3)nc3ccccc3n12 [Example 634, benzoic acid-4-(1-methyl-[1,2,4]triazolo[4,3-a]quinoxaline-4-ylamino)-butylester] | – | –
56 nM | – | COc1cc2nc(NCCCCCNC(=O)OC(C)(C)C)c3nnc(C)n3c2cc1OC [Example 642, [5-(7,8-dimethoxy-1-methyl-[1,2,4]triazolo[4,3-a]quinoxaline-4-ylamino)-pentyl]-carbamic acid-tert-butylester] | – | –
56 nM | – | COc1cc2nc(NCCCCC(=O)NC(C)(C)C)c3nnc(C)n3c2cc1OC [Example 646] | – | –
29 nM | ≤ 50 nM | COc1cc2nc(NCCCCC(=O)NC(C)C)c3nnc(C)n3c2cc1OC [Example 647, 5-(7,8-dimethoxy-1-methyl-[1,2,4]triazolo[4,3-a]quinoxaline-4-ylamino)-pentanoic acid-isopropylamide] | – | –
16 nM | ≤ 50 nM | COc1ccc2c(c1)nc(NCCCCC(=O)NC(C)(C)C)c1nnc(C)n12 [Example 653, 5-(7-methoxy-1-methyl-[1,2,4]triazolo[4,3-a]quinoxaline-4-ylamino)-pentanoic acid-tert-butylamide] | – | –
26 nM | ≤ 50 nM | COc1ccc2c(c1)nc(NCCCCC(=O)NCc1ccccc1)c1nnc(C)n12 [Example 658] | – | –
75 nM | – | Cc1nnc2c(NCCCCC(=O)NC(C)C)nc3ccccc3n12 [Example 659, 5-(1-methyl-[1,2,4]triazolo[4,3-a]quinoxaline-4-ylamino)-pentanoic acid isopropylamide] | – | –
78 nM | – | Cc1nnc2c(NCCCCCC(=O)NC(C)C)nc3ccccc3n12 [Example 661, 6-(1-methyl-[1,2,4]triazolo[4,3-a]quinoxaline-4-ylamino)-hexanoic acid isopropylamide] | – | –
39 nM | ≤ 50 nM | Cc1nnc2c(NCCCCCC(=O)NCC(C)C)nc3ccccc3n12 [Example 662, 6-(1-methyl-[1,2,4]triazolo[4,3-a]quinoxaline-4-ylamino)-hexanoic acid isobutylamide] | – | –

Molecule | IC50 [2, 5] | IC50 [2, 6] | IC50 [1, 3] | IC50 [1, 4]
COc1ccc2c(c1)nc(NCCCCNC(=O)CC(C)C)c1nnc(C(C)C)n12 [Example 627] | 23 nM | ≤ 50 nM | – | –
N-(4-{7-[4-(N-hydroxycarbamimidoyl)-benzoyl]-1-methyl-[1,2,4]triazolo[4,3-a]quinoxaline-4-ylamino}-butyl)-3-methyl-butyramide [Example 347] | 18 nM | ≤ 50 nM | – | –
